Activity calls are given as the source filed them. The calls are words filed in the database; no cut-off is given here.
Legend:
[1] = biological target: Platelet glycoprotein 4 (Mus musculus) (UniProt Q08857); assay: Modulation activity at CD36 in mouse J774 cells assessed as promotion of cholesterol efflux at 100 nM pre-incubated for 17 hrs before apolipoprotein A-I addition for 4 hrs by fluorescent-labeled cholesterol kit based assay relative to control; type: cell-based
[2] = biological target: Platelet glycoprotein 4 (Rattus norvegicus) (UniProt Q07969); assay: Displacement of photoactivated [125I]-Tyr-Bpa-Ala-hexarelin from CD36 in rat heart purified membranes
Chain of Platelet glycoprotein 4 (Rattus norvegicus) (Q07969 whole entry): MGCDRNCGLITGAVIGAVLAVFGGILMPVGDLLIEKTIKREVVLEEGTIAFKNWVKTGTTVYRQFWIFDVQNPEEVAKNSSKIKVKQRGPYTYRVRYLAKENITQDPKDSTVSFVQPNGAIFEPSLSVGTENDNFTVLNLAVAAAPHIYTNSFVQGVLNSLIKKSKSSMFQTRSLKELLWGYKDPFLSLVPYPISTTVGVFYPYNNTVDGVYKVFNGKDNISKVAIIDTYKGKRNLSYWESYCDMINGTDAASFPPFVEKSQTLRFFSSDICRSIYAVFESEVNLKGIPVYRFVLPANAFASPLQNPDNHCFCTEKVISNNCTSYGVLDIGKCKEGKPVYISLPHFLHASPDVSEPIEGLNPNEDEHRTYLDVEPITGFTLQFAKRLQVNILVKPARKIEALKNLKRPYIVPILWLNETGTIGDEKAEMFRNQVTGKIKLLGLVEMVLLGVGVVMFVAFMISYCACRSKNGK

[3] = biological target: Platelet glycoprotein 4 (Mus musculus) (UniProt Q08857); assay: Modulation activity at CD36 in mouse RAW264.7 cells assessed as inhibition of TLR-2 agonist R-FSL-1-induced NO overproduction relative to control; type: cell-based; set-up: concentration or dose not given beside the values; settings: concentration not given here
[4] = biological target: Platelet glycoprotein 4 (Rattus norvegicus) (UniProt Q07969); assay: Displacement of photoactivated [125I]-Tyr-Bpa-Ala-hexarelin from CD36 in rat heart purified membranes relative to control; type: cell membranes

Chain of Platelet glycoprotein 4 (Mus musculus) (Q08857 whole entry): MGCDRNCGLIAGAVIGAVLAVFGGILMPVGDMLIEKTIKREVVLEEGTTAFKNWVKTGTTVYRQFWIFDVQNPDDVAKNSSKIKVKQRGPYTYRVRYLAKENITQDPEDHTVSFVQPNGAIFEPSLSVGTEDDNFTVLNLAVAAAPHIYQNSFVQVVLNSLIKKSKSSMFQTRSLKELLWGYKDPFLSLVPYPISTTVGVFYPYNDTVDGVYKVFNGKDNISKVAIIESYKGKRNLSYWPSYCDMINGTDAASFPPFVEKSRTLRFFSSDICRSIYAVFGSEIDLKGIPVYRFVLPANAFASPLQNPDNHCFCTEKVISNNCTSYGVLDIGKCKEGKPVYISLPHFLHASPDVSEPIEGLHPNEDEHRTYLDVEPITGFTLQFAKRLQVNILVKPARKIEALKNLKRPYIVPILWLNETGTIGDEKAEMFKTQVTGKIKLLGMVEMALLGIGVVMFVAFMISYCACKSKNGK

C=CCN1CC#CC[C@H](NC(=O)[C@H](C)N)C(=O)N[C@@H](C)C(=O)N[C@@H](Cc2c[nH]c3ccccc23)C(=O)N[C@H](Cc2ccccc2)C(=O)N[C@H](C(N)=O)CCCC1
Activity [1]: 13%
IC50 [2]: 1470 nM
inhibition [3]: 16%

C=CCN1CC#CC[C@@H](NC(=O)[C@H](C)N)C(=O)N[C@@H](C)C(=O)N[C@@H](Cc2c[nH]c3ccccc23)C(=O)N[C@H](Cc2ccccc2)C(=O)N[C@H](C(N)=O)CCCC1
Activity [1]: 6%
IC50 [2]: 3320 nM
inhibition [3]: 9%

C=CCN1CC#CCN(N)C(=O)N[C@H](Cc2c[nH]c3ccccc23)C(=O)N[C@@H](C)C(=O)N[C@@H](Cc2c[nH]c3ccccc23)C(=O)N[C@H](Cc2ccccc2)C(=O)N[C@H](C(N)=O)CCCC1
inhibition [4]: inactive
inhibition [3]: 18%

C=CCN1CC#CCN(NC(=O)[C@H](C)N)C(=O)N[C@@H](C)C(=O)N[C@@H](Cc2c[nH]c3ccccc23)C(=O)N[C@H](Cc2ccccc2)C(=O)N[C@H](C(N)=O)CCCC1
Activity [1]: 6%
IC50 [2]: 240 nM
inhibition [3]: 29%

C=CCN1CC#CCN(NC(=O)[C@H](C)NC(C)=O)C(=O)N[C@H](Cc2c[nH]c3ccccc23)C(=O)N[C@@H](C)C(=O)N[C@@H](Cc2c[nH]c3ccccc23)C(=O)N[C@H](Cc2ccccc2)C(=O)N[C@H](C(N)=O)CCCC1
Activity [1]: 17%
IC50 [2]: 670 nM
inhibition [3]: 20%

C=CCN1CC#CC[C@H](NC(=O)[C@H](C)N)C(=O)N[C@H](Cc2c[nH]c3ccccc23)C(=O)N[C@@H](C)C(=O)N[C@@H](Cc2c[nH]c3ccccc23)C(=O)N[C@H](Cc2ccccc2)C(=O)N[C@H](C(N)=O)CCCC1
Activity [1]: 7%
IC50 [2]: 660 nM
inhibition [3]: 17%

C=CCN1CC#CC[C@@H](NC(=O)[C@H](C)N)C(=O)N[C@H](Cc2c[nH]c3ccccc23)C(=O)N[C@@H](C)C(=O)N[C@@H](Cc2c[nH]c3ccccc23)C(=O)N[C@H](Cc2ccccc2)C(=O)N[C@H](C(N)=O)CCCC1
Activity [1]: 6%
IC50 [2]: 1040 nM
inhibition [3]: 10%

C=CCN1CC#CCN(NC(=O)[C@H](C)N)C(=O)N[C@H](Cc2c[nH]c3ccccc23)C(=O)N[C@@H](C)C(=O)N[C@@H](Cc2c[nH]c3ccccc23)C(=O)N[C@H](Cc2ccccc2)C(=O)N[C@H](C(N)=O)CCCC1
Activity [1]: 11%
IC50 [2]: 80 nM
inhibition [3]: 45%

Source: ChEMBL document CHEMBL4414665, “Dynamic Chirality in the Mechanism of Action of Allosteric CD36 Modulators of Macrophage-Driven Inflammation” (J Med Chem, 2019)
